The numbers were not newly measured in patent US9456985B2, “Sustained-released product comprising a combination of a non-opioid amine and a non-steroidal, anti-inflammatory drug” (Upsher-Smith Laboratories, Inc., priority 2009, dated 2016), which cites them from elsewhere.

Where a name gives a salt, the structure may show the parent alone.

For the data set the following is noted: no test described.

Consider `CC12CC3CC(C)(C1)CC(N)(C3)C2` [memantine hydrochloride, Memantine hydrochloride], for which the “solubility (descriptive)” value is reported as “soluble in water”. For `NC12CC3CC(CC(C3)C1)C2` [Amantadine hydrochloride], the “solubility (descriptive)” value was “freely soluble”.
